Experiment: xn = mol fraction of the nth substance listed
Settings: 101 kPa, Liquid; for viscosity: Capillary tube (Ostwald / Ubbelohde) method; for excess molar volume: Direct dilatometry; for speed of sound: Linear variable-path acoustic interferometer

Cc1ccc(C)cc1 [1,4-dimethylbenzene] + CCCCCCCCCC
Settings | excess molar volume, 303.15 K [m3/mol] | excess molar volume, 308.15 K [m3/mol] | excess molar volume, 313.15 K [m3/mol] | speed of sound, 303.15 K [m/s] | speed of sound, 308.15 K [m/s] | speed of sound, 313.15 K [m/s] | viscosity, 303.15 K [mPa·s] | viscosity, 308.15 K [mPa·s] | viscosity, 313.15 K [mPa·s]
x1 = 0.1533 | 2.83e-07 | 4.89e-07 | 6.99e-07 | 1215.1 | 1192.3 | 1176.9 | 0.729 | 0.678 | 0.66
x1 = 0.2952 | 4.35e-07 | 6.8e-07 | 9.11e-07 | 1220 | 1197.6 | 1182 | 0.68 | 0.639 | 0.623
x1 = 0.4189 | 5.14e-07 | 7.6e-07 | 9.8e-07 | 1225.5 | 1203.1 | 1187.7 | 0.646 | 0.609 | 0.59
x1 = 0.4949 | 5.29e-07 | 7.59e-07 | 9.81e-07 | 1230 | 1207.3 | 1192 | 0.628 | 0.592 | 0.573
x1 = 0.6001 | 4.9e-07 | 7.03e-07 | 9.41e-07 | 1237.9 | 1214.1 | 1198.8 | 0.605 | 0.572 | 0.552
x1 = 0.6938 | 4.26e-07 | 6.32e-07 | 8.76e-07 | 1246.6 | 1221.6 | 1205.6 | 0.588 | 0.557 | 0.538
x1 = 0.7777 | 3.54e-07 | 5.56e-07 | 7.71e-07 | 1255.4 | 1229 | 1212.5 | 0.576 | 0.546 | 0.527
x1 = 0.8604 | 2.73e-07 | 4.55e-07 | 6.47e-07 | 1265.3 | 1238.4 | 1221.3 | 0.568 | 0.539 | 0.519
x1 = 0.9332 | 1.72e-07 | 3.03e-07 | 4.4e-07 | 1274.4 | 1251 | 1232.8 | 0.566 | 0.537 | 0.515
x1 = 1 | 0 | 0 | 0 | 1283.7 | 1271 | 1260 | 0.566 | 0.537 | 0.513
